Earlier results on one compound are cited in patent publication US20250341511A1, “MASS-TAG LABELING OF THE CELLULAR SECRETOME” (The Governing Council of the University of Toronto, priority 2022, published 2025).

For the data set the following is noted: relative to required assay concentration.

Consider `C[Te]CCCOC(=O)NCCNC(=O)Cn1ccnc1[N+](=O)[O-]` [Telox], for which the “metabolic LD50” value is given as “close to the required assay concentration”.
